These results are taken from patent publication US5128493A, “Platinum complexes” (Nippon Kayaku Kabushiki Kaisha, priority 1987, dated 1992).

The test system of data set [1] is Mouse leukemia L1210 cells. Nature of the data set: Growth inhibitory activity against cultured tumor cells, L1210. Type of data set: cell-based. The following applies: Tumor cell L1210; RPMI 1640, 10% fetal calf serum. As for the experimental part: (§1) Test of Growth Inhibitory Activity Against Various Kinds of Cultured Tumor Cells
(§2) Mouse leukemia L1210 cells were cultured in a RPMI 1640 medium containing 10% of fetal calf serum and mouse Lewis lung carcinoma (LL) cells were cultured in a RPMI 1640 medium containing 10% fetal calf serum and 100 μg/ml of Kanamycin.

The test system of data set [2] is mouse Lewis lung carcinoma (LL) cells. The experiment in a line: Growth inhibitory activity against cultured tumor cells, LL. The conditions noted are these: Tumor cell LL; RPMI 1640, 10% fetal calf serum, 100 μg/ml Kanamycin. It counts as cell-based. As for the experimental part:
as §1, §2

Data set [3] has as its system cis-Platin resistant mouse leukemia L1210 cells. Nature of the data set: Growth inhibitory activity against cis-Platin resistant tumor cells, L1210. It counts as cell-based. The conditions noted are these: Tumor cell L1210; ratio of IC50 for cis-Platin resistant cells to IC50 for non-resistant cells. From the text:
(§3) 1×10^5 mouse leukemia L1210 cells or 1×10^5 mouse leukemia P388 cells were inoculated into the abdominal cavities of CDF1 female mice. […] After 5 days, their tumor cells were inoculated to the abdominal cavities of other CDF1 female mice, and the same treatment was applied.

The subject of data set [4] is cis-Platin resistant mouse leukemia P388 cells. Nature of the data set: Growth inhibitory activity against cis-Platin resistant tumor cells, P388. It counts as cell-based. The following applies: Tumor cell P388; ratio of IC50 for cis-Platin resistant cells to IC50 for non-resistant cells.
Description: as §3

The subject of data set [5] is Mouse Leukemia L1210. Nature of the data set: Antitumor activity against mouse leukemia L1210 in vivo. Also noted: species or system mouse (female CDF1). The conditions noted are these: i.p. once a day for 5 consecutive days; for max (T/C): L1210, mean survival time, at optimum dose; for Opt. dose: L1210, daily amount giving the max (T/C); for LD50: L1210-bearing female CDF1 mice. As for the experimental part:
Test of Antitumor Activity Against Mouse Leukemia L1210 in vivo
1×10^5 mouse leukemia L1210 cells were inoculated into the abdominal cavities of 6-week-old female CDF1 mice. From the next day, a compound was administered to them intraperitoneally once a day for 5 consecutive days. Mice of a compound-non-treated group (control group) were administered with physiological saline solution in the same manner. The mean survival time of the compound-treated group and the control group were measured and T/C was calculated from the equation (1): [formula]
In Table 4, max (T/C) means the maximum value of T/C and optimum dose (Opt. dose) means a daily administration amount giving the max (T/C), namely, an optimum daily administration amount.

For data set [6] the following is noted: mouse, in vivo, ip.
Description: A compound was singly administered to 6-week-old male CDF1 mice intraperitoneally.
The subject of data set [7] is Mouse Lewis Lung Carcinoma. The experiment in a line: Antitumor activity against mouse Lewis lung carcinoma in vivo. Also noted: species or system mouse (male BDF1). The conditions noted are these: i.p. once a day for 5 consecutive days; for max (T/C) / Opt. dose: Lewis lung carcinoma; for max (T/C): median survival time, at optimum dose; for Opt. dose: daily amount giving the max (T/C). As for the experimental part: Test of Antitumor Activity Against Mouse Lewis Lung Carcinoma
1×10^6 mouse Lewis lung carcinoma cells were inoculated into the abdominal cavities of 6-week-old male BDF1 mice. From the next day, a compound was administered to them intraperitoneally once a day for 5 consecutive days. Mice of compound-non-treated group (control group) were administered with physiological saline solution in the same manner. From the median survival time of the compoundtreated group and the control group, T/C was calculated according to the following equation (2): [formula]
In Table 5, max (T/C), and Opt. dose and LD50 mean the same ones in Table 4, respectively.

The conditions of data set [8]: cis-Platin, prior art description; cited from earlier work.

Turning to “cis-Dimethylmalonato-2,3-dimethyl-1,4-butanediamine Platinum [Compound No. 5]”, the Solubility in water was > 20 mg/mL. Moreover, in data set [1], the IC50 (in general, the concentration needed to halve the response being measured) is 0.40 µg/mL. In [2], the IC50 came to 1.06 µg/mL. The “IC50 R/IC50” value in data set [3] worked out at 1.4. The “IC50 R/IC50” value in [4] came to 6.2. Besides, in data set [5], the “max (T/C)” value is listed as 245 and the Opt. dose came out at 32.0 mg/kg. Further, in data set [6], the Body weight ratio came to 0.89.
Regarding “cis-Oxalato-2,3-dimethyl-1,4-butanediamine Platinum [Compound No. 2]”, the Solubility in water is > 3 mg/mL. In [1], this compound showed an IC50 of 0.11 µg/mL. Also, the IC50 in [2] amounted to 0.65 µg/mL. In addition, in data set [5], the “max (T/C)” value worked out at 296, the LD50 (usually the dose expected to kill half of the subjects tested) is recorded as 7.2 mg/kg and the Opt. dose stood at 4.0 mg/kg. Besides, in [6], the Body weight ratio worked out at 0.77.
“cis-Malonato-2,3-dimethyl-1,4-butanediamine Platinum [Compound No. 3]”: the Solubility in water is > 30 mg/mL. Further, in data set [1], the IC50 stood at 0.27 µg/mL. For the same compound, in data set [2], the IC50 came out at 0.95 µg/mL. Further, the “IC50 R/IC50” value in [3] stood at 1.3. Moreover, in [4], the “IC50 R/IC50” value came to 4.6. Further, in [5], the “max (T/C)” value amounted to 400 and the Opt. dose was determined as 16.0 mg/kg. Moreover, in data set [7], the “max (T/C)” value was found to be 234 and the Opt. dose was determined as 32.0 mg/kg. Also, the Body weight ratio in [6] turned out to be 1.00.
In data set [5], `N.N.[Cl][Pt][Cl]` [cis-Platin, cis-dichlorodiammineplatinum, reference compound] yielded an Opt. dose of 4 mg/kg. Moreover, in [8], the “dissolving in water (in words)” value is “dissolving in water slowly”.
As for “cis-Diethylmalonato-2,3-dimethyl-1,4-butanediamine Platinum [Compound No. 8]”, the Solubility in water is > 15 mg/mL.
Take “cis-4-Oxacyclohexane-1,1-dicarboxylato-2,3-dimethyl-1,4-butanediamine Platinum [Compound No. 6]”: the Solubility in water was > 20 mg/mL. For the same compound, in data set [1], the IC50 came to 0.11 µg/mL. In addition, in [2], the IC50 was found to be 1.06 µg/mL.
Consider “cis-Cyclobutane-1,1-dicarboxylato-2,3-dimethyl-1,4-butanediamine Platinum [Compound No. 4]”, for which the results for the IC50 in data set [1] and in data set [2] were 1.01 µg/mL and 2.10 µg/mL, respectively. Also, the figures for the “max (T/C)” value in [5] and in data set [7] were 328 and 144, respectively. The Opt. dose in [5] and in data set [7] was 32.0 mg/kg each time. The LD50 in data set [7] (Lewis lung carcinoma-bearing male BDF1 mice) was determined as 48.0 mg/kg.
“cis-Dichloro-2,3-dimethyl-1,4-butanediamine Platinum [Compound No. 1]” showed an IC50 in [1] of 0.04 µg/mL. Moreover, the IC50 in data set [2] came to 0.43 µg/mL. For the same compound, in data set [5], the “max (T/C)” value came out at 323, the LD50 amounted to 3.0 mg/kg and the Opt. dose is on record as 2.0 mg/kg. The “Solubility in physiological saline solution” value (physiological saline) is > 2 mg/ml. In addition, the Body weight ratio in data set [6] was 0.79.
For the compound “cis-Ethylmalonato-2,3-dimethyl-1,4-butanediamine Platinum [Compound No. 7]”, the Solubility in water is > 20 mg/mL.
